According to patent US20240199613A1 (TAKEDA PHARMACEUTICAL COMPANY LIMITED, priority 2021, published 2024):

Assays:
[1] = biological target: human activated kallikrein enzyme (Homo sapiens, UniProt P03952); assay: Inhibition of activated plasma kallikrein, fluorogenic peptide substrate (PFR-AMC) assay, 500 pM enzyme format; type: biochemical; settings: 500 pM activated kallikrein, 300 uM PFR-AMC, 30 min preincubation, 10 min reaction, room temperature; read-out: Primary Dose Response Assay: Average EC50
Procedure, shortened: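 500 pM enzyme preincubated 30 min at room temperature with inhibitor in 20 mM Tris pH 7.5, 150 mM NaCl, 1 mM EDTA, 0.1% PEG-400, 0.1% Triton X-100. Reaction started with 300 uM PFR-AMC and run 10 min at room temperature. Fluorescence read at 380 nm excitation/460 nm emission.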

[2] = biological target: T1, plasma kallikrein (Homo sapiens, UniProt P03952); assay: Neat human plasma assay: contact pathway-activated (FXIIa) plasma, PFR-AMC substrate; type: biochemical; settings: citrated human plasma (78% final), 10 nM human FXIIa, 100 μM PFR-AMC, room temperature
T1 construct: from tissue; host or cells: sodium citrate collected human plasma (78% final)
Procedure, shortened: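 Compounds spiked into citrated human or rat plasma (78% final), or plasma taken from orally or IV dosed rats, activated with 10 nM human FXIIa; 100 μM PFR-AMC cleavage read at 360/480 nm for 5 min, room temperature. Rates vs concentration fit to 4-parameter IC50/IC90 equation.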

T1 sequence (P03952 391-638 limits assumed): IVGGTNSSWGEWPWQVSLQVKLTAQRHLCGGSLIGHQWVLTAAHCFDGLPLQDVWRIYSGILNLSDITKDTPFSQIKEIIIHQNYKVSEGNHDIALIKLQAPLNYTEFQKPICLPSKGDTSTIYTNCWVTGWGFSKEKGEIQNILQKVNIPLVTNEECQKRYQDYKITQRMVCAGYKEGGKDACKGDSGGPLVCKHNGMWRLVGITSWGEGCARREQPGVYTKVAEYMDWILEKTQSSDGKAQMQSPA
T1 sequence (P03952 20-390 partner limits assumed): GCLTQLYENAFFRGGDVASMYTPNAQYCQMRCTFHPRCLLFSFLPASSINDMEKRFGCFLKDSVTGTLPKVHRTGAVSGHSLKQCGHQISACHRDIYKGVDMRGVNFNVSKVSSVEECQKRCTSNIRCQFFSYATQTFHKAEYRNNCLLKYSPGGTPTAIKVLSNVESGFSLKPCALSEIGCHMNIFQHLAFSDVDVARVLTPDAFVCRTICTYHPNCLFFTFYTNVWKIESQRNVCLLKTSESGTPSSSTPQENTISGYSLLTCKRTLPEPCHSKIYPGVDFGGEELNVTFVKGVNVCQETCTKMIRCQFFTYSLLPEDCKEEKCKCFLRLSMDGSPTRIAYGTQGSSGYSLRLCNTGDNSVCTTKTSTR
human activated kallikrein enzyme, sequence (P03952 391-638 limits assumed): as the sequence (P03952 391-638 limits assumed) above
human activated kallikrein enzyme, sequence (P03952 20-390 partner limits assumed): as the sequence (P03952 20-390 partner limits assumed) above

SMILES | EC50 [1] [µM] | IC90 [2] [µM]
Cc1ccnc([C@H]2C[C@@H]2c2cc(N3CC4(COC4)C3)c3ccc(NC(C)c4cn5cc(C6CC6)cc(N6CC(=O)N(C)C6=O)c5n4)cc3n2)n1 (stereo partly drawn) [Example 99, 1-(6-cyclopropyl-2-(1-((2-((1S,2S)-2-(4-methylpyrimidin-2-yl)cyclopropyl)-4-(2-oxa-6-azaspiro[3.3]heptan-6-yl)quinolin-7-yl)amino)ethyl)imidazo[1,2-a]pyridin-8-yl)-3-methylimidazolidine-2,4-dione] | 0.001 to 0.01 | 0.4 to 1.5
Cc1ccnc([C@H]2C[C@@H]2c2cc(-c3cnn(C)c3)c3ccc(NCc4cn5cc(C6CC6)cc(N6CC(=O)N(C)C6=O)c5n4)cc3n2)n1 [Example 27, 1-(6-cyclopropyl-2-(((4-(1-methyl-1H-pyrazol-4-yl)-2-((1S,2S)-2-(4-methylpyrimidin-2-yl)cyclopropyl)quinolin-7-yl)amino)methyl)imidazo[1,2-a]pyridin-8-yl)-3-methylimidazolidine-2,4-dione] | ≤ 0.001 | 0.4 to 1.5
Cc1ccnc([C@H]2C[C@@H]2c2ccc3c(C#N)cc(NCc4cn5cc(C6CC6)cc(N6CC(=O)N(C)C6=O)c5n4)cc3n2)n1 (racemic) [Example 82, rac-7-(((6-cyclopropyl-8-(3-methyl-2,4-dioxoimidazolidin-1-yl)imidazo[1,2-a]pyridin-2-yl)methyl)amino)-2-((1S*,2S*)-2-(4-methylpyrimidin-2-yl)cyclopropyl)quinoline-5-carbonitrile] | 0.001 to 0.01 | 1.5 to 10
Cc1ccnc([C@H]2C[C@@H]2C2=NS(=O)(=O)c3ccc(OCc4cn5cc(C6CC6)ccc5n4)cc3N2)n1 [Example 91, 6-((6-cyclopropylimidazo[1,2-a]pyridin-2-yl)methoxy)-3-((1S,2S)-2-(4-methylpyrimidin-2-yl)cyclopropyl)-4H-benzo[e][1,2,4]thiadiazine 1,1-dioxide] | ≤ 0.001 | 1.5 to 10
Cc1ccnc([C@H]2C[C@@H]2C2=NS(=O)(=O)c3ccc(NCc4cn5cc(C6CC6)ccc5n4)cc3N2)n1 (racemic) [Example 64, rac-6-(((6-cyclopropylimidazo[1,2-a]pyridin-2-yl)methyl)amino)-3-((1S*,2S*)-2-(4-methylpyrimidin-2-yl)cyclopropyl)-4H-benzo[e][1,2,4]thiadiazine 1,1-dioxide] | ≤ 0.001 | 0.4 to 1.5
CNc1cc([C@H]2C[C@@H]2c2nccc(C)n2)nc2cc(NCc3cn4cc(C5CC5)cc(N5CC(=O)N(C)C5=O)c4n3)ccc12 (racemic) [Example 32, rac-1-(6-cyclopropyl-2-(((4-(methylamino)-2-((1S*,2S*)-2-(4-methylpyrimidin-2-yl)cyclopropyl)quinolin-7-yl)amino)methyl)imidazo[1,2-a]pyridin-8-yl)-3-methylimidazolidine-2,4-dione] | ≤ 0.001 | ≤ 0.4
Cc1ccnc([C@H]2C[C@@H]2C2=NS(=O)(=O)c3cc(Cl)c(NCc4cn5cc(C6CC6)ccc5n4)cc3N2)n1 (racemic) [Example 89, rac-7-chloro-6-(((6-cyclopropylimidazo[1,2-a]pyridin-2-yl)methyl)amino)-3-((1S*,2S*)-2-(4-methylpyrimidin-2-yl)cyclopropyl)-4H-benzo[e][1,2,4]thiadiazine 1,1-dioxide] | ≤ 0.001 | 1.5 to 10
Cc1ccnc([C@H]2C[C@@H]2c2cc(N(C)C)c3ccc(NCc4cn5cc(C6CC6)ccc5n4)cc3n2)n1 (racemic) [Example 1, rac-N^7-((6-cyclopropylimidazo[1,2-a]pyridin-2-yl)methyl)-N^4,N^4-dimethyl-2-((1S*,2S*)-2-(4-methylpyrimidin-2-yl)cyclopropyl)quinoline-4,7-diamine] | ≤ 0.001 | 0.4 to 1.5
Cc1ccnc([C@H]2C[C@@H]2c2ccc3c(N(C)C)cc(NCc4cn5cc(C6CC6)cc(N6CC(=O)N(C)C6=O)c5n4)cc3n2)n1 (racemic) [Example 88, rac-1-(6-cyclopropyl-2-(((5-(dimethylamino)-2-((1S*,2S*)-2-(4-methylpyrimidin-2-yl)cyclopropyl)quinolin-7-yl)amino)methyl)imidazo[1,2-a]pyridin-8-yl)-3-methylimidazolidine-2,4-dione] | ≤ 0.001 | 0.4 to 1.5
Cc1ccnc([C@H]2C[C@@H]2C2=CS(=O)(=O)c3ccc(NCc4cn5cc(C6CC6)ccc5n4)cc3N2)n1 (racemic) [Example 55, rac-6-(((6-cyclopropylimidazo[1,2-a]pyridin-2 yl)methyl)amino)-3-((1S*,2S*)-2-(4-methylpyrimidin-2-yl)cyclopropyl)-4H-benzo[b][1,4]thiazine 1,1-dioxide] | ≤ 0.001 | 1.5 to 10
Cc1ccnc([C@H]2C[C@@H]2C2=NS(=O)(=O)c3cc4c(cc3N2)N(Cc2cn3cc(C5CC5)ccc3n2)CCO4)n1 [Example 93, 6-((6-cyclopropylimidazo[1,2-a]pyridin-2-yl)methyl)-3-((1S,2S)-2-(4-methylpyrimidin-2-yl)cyclopropyl)-7,8-dihydro-4H,6H-[1,4]oxazino[2′,3′:4,5]benzo[1,2-e][1,2,4]thiadiazine 1,1-dioxide] | ≤ 0.001 | 1.5 to 10
Cc1ccnc([C@H]2C[C@@H]2c2ccc3ncc(NCc4cn5cc(C6CC6)cc(N6CC(=O)N(C)C6=O)c5n4)cc3n2)n1 (racemic) [Example 14, rac-1-(6-cyclopropyl-2-(((6-((1S*,2S*)-2-(4-methylpyrimidin-2-yl)cyclopropyl)-1,5-naphthyridin-3-yl)amino)methyl)imidazo[1,2-a]pyridin-8-yl)-3-methylimidazolidine-2,4-dione] | 0.001 to 0.01 | 1.5 to 10
Cc1ccnc([C@H]2C[C@@H]2c2cc(OC3CCN(C)CC3)c3ccc(NCc4cn5cc(C6CC6)cc(N6CC(=O)N(C)C6=O)c5n4)cc3n2)n1 (racemic) [Example 35, rac-1-(6-cyclopropyl-2-(((4-((1-methylpiperidin-4-yl)oxy)-2-((1S*,2S*)-2-(4-methylpyrimidin-2-yl)cyclopropyl)quinolin-7-yl)amino)methyl)imidazo[1,2-a]pyridin-8-yl)-3-methylimidazolidine-2,4-dione] | ≤ 0.001 | ≤ 0.4
Cc1ccnc([C@H]2C[C@@H]2c2cc(N3CC4(COC4)C3)c3ccc(NCc4cc5cc(C6CC6)cc(N6CC(=O)N(C)C6=O)n5n4)cc3n2)n1 [Example 107, 1-(5-cyclopropyl-2-(((2-((1S,2S)-2-(4-methylpyrimidin-2-yl)cyclopropyl)-4-(2-oxa-6-azaspiro[3.3]heptan-6-yl)quinolin-7-yl)amino)methyl)pyrazolo[1,5-a]pyridin-7-yl)-3-methylimidazolidine-2,4-dione] | ≤ 0.001 | ≤ 0.4
Cc1ccnc([C@H]2C[C@@H]2C2=NS(=O)(=O)c3ccc(OCc4cn5cc(C6CC6)ccc5n4)cc3N2)n1 (racemic) [Example 92, rac-6-((6-cyclopropylimidazo[1,2-a]pyridin-2-yl)methoxy)-3-((1S*,2S*)-2-(4-methylpyrimidin-2-yl)cyclopropyl)-4H-benzo[e][1,2,4]thiadiazine 1,1-dioxide] | ≤ 0.001 | 1.5 to 10
COc1cc2ccc([C@H]3C[C@@H]3c3nccc(C)n3)nc2cc1NCc1cn2cc(C3CC3)cc(N3CC(=O)N(C)C3=O)c2n1 (racemic) [Example 84, rac-1-(6-cyclopropyl-2-(((6-methoxy-2-((1S*,2S*)-2-(4-methylpyrimidin-2-yl)cyclopropyl)quinolin-7-yl)amino)methyl)imidazo[1,2-a]pyridin-8-yl)-3-methylimidazolidine-2,4-dione] | ≤ 0.001 | 1.5 to 10
